ChEMBL document CHEMBL3352662, “Flow synthesis and biological activity of aryl sulfonamides as selective carbonic anhydrase IX and XII inhibitors” (Bioorg Med Chem Lett, 2014)
pIC50: −log10 of the molar value.

How the values were obtained:
[1] = target: T1, Carbonic anhydrase 1 (Homo sapiens, UniProt P00915); assay: Inhibition of CA-1 (unknown origin) after 15 mins by CO2 hydration assay
Target sequence in this assay (P00915 whole entry): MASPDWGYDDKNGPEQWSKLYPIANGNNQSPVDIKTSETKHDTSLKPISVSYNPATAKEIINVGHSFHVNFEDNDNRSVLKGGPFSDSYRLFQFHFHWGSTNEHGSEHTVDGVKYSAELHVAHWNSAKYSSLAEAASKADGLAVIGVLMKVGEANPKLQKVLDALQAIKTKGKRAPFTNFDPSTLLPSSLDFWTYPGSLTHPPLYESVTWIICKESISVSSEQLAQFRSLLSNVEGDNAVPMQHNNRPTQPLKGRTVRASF

[2] = target: T1, Carbonic anhydrase 1; assay: Inhibition of CA-1 (unknown origin) at 10 uM after 15 mins by CO2 hydration assay
Target sequence in this assay (P00915 2-261 limits assumed): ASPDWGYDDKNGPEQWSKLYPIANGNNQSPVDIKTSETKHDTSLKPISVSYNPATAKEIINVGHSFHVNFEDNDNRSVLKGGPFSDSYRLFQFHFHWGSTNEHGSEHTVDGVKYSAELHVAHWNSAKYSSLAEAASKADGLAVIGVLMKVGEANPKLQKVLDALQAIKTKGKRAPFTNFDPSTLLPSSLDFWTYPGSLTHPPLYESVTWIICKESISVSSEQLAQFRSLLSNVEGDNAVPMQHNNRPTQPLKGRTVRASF

[3] = target: T2, Carbonic anhydrase 2 (Homo sapiens, UniProt P00918); assay: Inhibition of CA-2 (unknown origin) after 15 mins by CO2 hydration assay
[4] = target: T2, Carbonic anhydrase 2; assay: Inhibition of CA-2 (unknown origin) at 10 uM after 15 mins by CO2 hydration assay
[5] = target: Carbonic anhydrase 9 (Homo sapiens, UniProt Q16790); assay: Inhibition of CA-9 (unknown origin) after 15 mins by CO2 hydration assay
[6] = target: Carbonic anhydrase 12 (Homo sapiens, UniProt O43570); assay: Inhibition of CA-12 (unknown origin) after 15 mins by CO2 hydration assay
Chain of Carbonic anhydrase 12 (O43570 whole entry): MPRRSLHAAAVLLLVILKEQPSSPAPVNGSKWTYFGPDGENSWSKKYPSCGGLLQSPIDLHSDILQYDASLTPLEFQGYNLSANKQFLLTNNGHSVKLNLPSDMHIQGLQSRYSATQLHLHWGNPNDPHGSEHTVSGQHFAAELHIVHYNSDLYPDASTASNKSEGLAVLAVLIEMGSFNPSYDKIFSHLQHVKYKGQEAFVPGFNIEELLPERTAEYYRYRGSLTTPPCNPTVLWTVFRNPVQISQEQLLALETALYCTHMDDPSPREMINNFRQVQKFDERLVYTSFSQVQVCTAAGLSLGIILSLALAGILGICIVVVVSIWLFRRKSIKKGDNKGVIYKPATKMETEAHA

Row | Structure (SMILES) | pIC50 [1] | inhibition [2] [%] | pIC50 [3] | inhibition [4] [%] | pIC50 [5] | pIC50 [6]
1 | Cc1ccc(S(=O)(=O)N(C)c2ccccc2)cc1 | < 4.30 | 39 | < 4.30 | 45 | 7.03 | 6.58
2 | Cc1ccc(S(=O)(=O)NCCCN(C)C)cc1 | < 4.30 | 39 | 5.18 | – | 7.03 | –
3 | CCCC(C)NS(=O)(=O)c1ccc(C)cc1 (centres undefined) | < 4.30 | 40 | 5.09 | – | 7.15 | –
4 | COc1ccc(S(=O)(=O)Nc2ccccc2)cc1OC | < 4.30 | 39 | < 4.30 | 45 | 7.10 | 6.75

Continued, values first:

Row | pIC50 [1] | inhibition [2] [%] | pIC50 [3] | inhibition [4] [%] | pIC50 [5] | pIC50 [6] | Structure (SMILES)
5 | < 4.30 | 34 | < 4.30 | 44 | 7.12 | 5.37 | Cc1ccc(S(=O)(=O)NCc2ccccc2)cc1
6 | < 4.30 | 39 | 5.44 | – | 6.66 | – | Cc1ccc(S(=O)(=O)NCC(=O)O)cc1
7 | < 4.30 | 38 | 5.29 | – | 7.05 | 6.65 | Cc1ccc(S(=O)(=O)Nc2ccccc2-c2ccccc2)cc1
8 | < 4.30 | 35 | < 4.30 | 45 | 7.05 | – | Cc1ccc(S(=O)(=O)Nc2ccccc2)cc1
9 | < 4.30 | 39 | 5.14 | – | 6.89 | – | O=[N+]([O-])c1ccc(S(=O)(=O)Nc2ccccc2)cc1
10 | < 4.30 | 36 | < 4.30 | 47 | 7.13 | – | CC(=O)c1ccc(S(=O)(=O)Nc2ccccc2)cc1
